Experimental data published in PMC4858680, “A platinum-based hybrid drug design approach to circumvent acquired resistance to molecular targeted tyrosine kinase inhibitors” (Scientific Reports, 2016).
Like-named read-outs stand apart in the source and are kept apart here.

What was measured:
EGFR = EGFR (Homo sapiens, UniProt P00533); conditions: 10 μM
K562 = test: Anticancer activity (cytotoxicity) in CML cell line; assay type: cell-based
[1] = biological target: ABL1(F317I)-phosphorylated (Homo sapiens, UniProt P00519, F317I); conditions: 10 μM
[2] = biological target: ABL1(Q252H)-phosphorylated (Homo sapiens, UniProt P00519, Q252H); conditions: 10 μM
[3] = biological target: ABL1(M351T)-phosphorylated (Homo sapiens, UniProt P00519, M351T); test: biochemical; conditions: read-out: Percent control
[4] = biological target: ABL1(E317I)-nonphosphorylated (Homo sapiens, UniProt P00519, F317I); test: biochemical; conditions: read-out: Percent control
ABL1-nonphosphorylated = ABL1-nonphosphorylated (Homo sapiens, UniProt P00519); test: biochemical; conditions: read-out: Percent control
[5] = biological target: ABL1(H396P)-phosphorylated (Homo sapiens, UniProt P00519, H396P); test: biochemical; conditions: read-out: Percent control
ABL1-phosphorylated = ABL1-phosphorylated (Homo sapiens, UniProt P00519); test: biochemical; conditions: read-out: Percent control
EGFR(L861Q) = EGFR(L861Q) (Homo sapiens, UniProt P00533, L861Q); test: biochemical; conditions: read-out: Percent control
Sequence of EGFR(L861Q) (P00533 25-1210 L861Q): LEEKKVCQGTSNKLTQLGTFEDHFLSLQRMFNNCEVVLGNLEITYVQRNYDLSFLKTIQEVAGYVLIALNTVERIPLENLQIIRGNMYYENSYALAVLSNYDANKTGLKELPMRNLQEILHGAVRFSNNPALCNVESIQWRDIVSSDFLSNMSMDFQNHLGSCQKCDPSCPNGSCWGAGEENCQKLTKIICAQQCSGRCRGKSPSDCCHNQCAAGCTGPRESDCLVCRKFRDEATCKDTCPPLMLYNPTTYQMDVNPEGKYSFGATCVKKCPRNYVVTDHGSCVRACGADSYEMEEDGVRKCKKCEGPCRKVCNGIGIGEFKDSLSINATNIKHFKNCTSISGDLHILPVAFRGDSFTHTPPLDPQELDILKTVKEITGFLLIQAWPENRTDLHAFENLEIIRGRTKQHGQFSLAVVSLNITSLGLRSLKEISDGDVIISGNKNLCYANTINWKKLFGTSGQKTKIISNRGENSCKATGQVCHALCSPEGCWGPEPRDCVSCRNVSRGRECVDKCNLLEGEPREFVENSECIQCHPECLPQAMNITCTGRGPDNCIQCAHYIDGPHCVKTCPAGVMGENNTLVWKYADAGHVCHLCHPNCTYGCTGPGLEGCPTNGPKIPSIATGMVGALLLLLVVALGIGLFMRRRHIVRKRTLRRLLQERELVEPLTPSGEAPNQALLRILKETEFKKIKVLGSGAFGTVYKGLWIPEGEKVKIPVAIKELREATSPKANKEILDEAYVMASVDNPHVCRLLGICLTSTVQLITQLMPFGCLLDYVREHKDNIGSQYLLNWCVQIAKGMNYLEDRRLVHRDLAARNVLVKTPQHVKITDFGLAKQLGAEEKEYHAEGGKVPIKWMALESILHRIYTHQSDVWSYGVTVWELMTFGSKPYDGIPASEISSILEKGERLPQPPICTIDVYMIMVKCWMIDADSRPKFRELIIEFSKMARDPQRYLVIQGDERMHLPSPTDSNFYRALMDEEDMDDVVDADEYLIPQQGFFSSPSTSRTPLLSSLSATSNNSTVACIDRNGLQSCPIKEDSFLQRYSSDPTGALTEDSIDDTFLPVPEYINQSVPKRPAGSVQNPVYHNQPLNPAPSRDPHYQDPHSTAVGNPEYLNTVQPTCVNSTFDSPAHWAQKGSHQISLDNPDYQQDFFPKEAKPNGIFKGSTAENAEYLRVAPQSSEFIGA

EGFR(L858R) = EGFR(L858R) (Homo sapiens, UniProt P00533, L858R); test: biochemical; conditions: read-out: Percent control
Sequence of EGFR(L858R) (P00533 25-1210 L858R): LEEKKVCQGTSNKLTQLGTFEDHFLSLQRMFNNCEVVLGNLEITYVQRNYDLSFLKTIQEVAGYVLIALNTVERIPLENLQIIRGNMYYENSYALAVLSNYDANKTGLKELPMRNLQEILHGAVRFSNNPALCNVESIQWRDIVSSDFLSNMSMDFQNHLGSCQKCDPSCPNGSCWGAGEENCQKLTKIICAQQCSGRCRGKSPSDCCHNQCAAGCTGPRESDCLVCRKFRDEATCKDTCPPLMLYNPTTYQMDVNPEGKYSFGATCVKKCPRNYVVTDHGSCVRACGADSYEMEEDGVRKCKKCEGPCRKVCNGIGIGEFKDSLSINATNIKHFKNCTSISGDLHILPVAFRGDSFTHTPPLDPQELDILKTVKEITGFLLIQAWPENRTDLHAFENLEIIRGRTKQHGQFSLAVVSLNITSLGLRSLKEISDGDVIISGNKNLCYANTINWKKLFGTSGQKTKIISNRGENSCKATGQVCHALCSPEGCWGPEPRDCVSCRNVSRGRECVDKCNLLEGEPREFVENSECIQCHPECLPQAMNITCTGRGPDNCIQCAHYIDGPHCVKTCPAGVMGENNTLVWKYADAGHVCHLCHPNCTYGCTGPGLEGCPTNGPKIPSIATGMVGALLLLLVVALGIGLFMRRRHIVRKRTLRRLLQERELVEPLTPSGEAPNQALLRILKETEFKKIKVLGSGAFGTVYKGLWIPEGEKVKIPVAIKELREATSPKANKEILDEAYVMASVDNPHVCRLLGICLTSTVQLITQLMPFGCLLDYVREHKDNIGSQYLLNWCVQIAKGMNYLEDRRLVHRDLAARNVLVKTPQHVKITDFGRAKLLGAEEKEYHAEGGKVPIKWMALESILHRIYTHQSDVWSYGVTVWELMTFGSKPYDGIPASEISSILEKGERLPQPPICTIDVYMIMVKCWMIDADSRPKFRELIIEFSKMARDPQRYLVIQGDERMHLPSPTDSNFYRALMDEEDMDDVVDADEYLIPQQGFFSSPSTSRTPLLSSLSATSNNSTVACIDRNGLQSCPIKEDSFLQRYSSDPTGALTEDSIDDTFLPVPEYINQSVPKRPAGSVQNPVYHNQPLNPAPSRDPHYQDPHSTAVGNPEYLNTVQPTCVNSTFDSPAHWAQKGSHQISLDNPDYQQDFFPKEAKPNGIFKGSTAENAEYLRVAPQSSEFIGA

ABL2 = ABL2 (Homo sapiens, UniProt P42684); test: biochemical; conditions: read-out: Percent control
Sequence of ABL2 (P42684 whole entry): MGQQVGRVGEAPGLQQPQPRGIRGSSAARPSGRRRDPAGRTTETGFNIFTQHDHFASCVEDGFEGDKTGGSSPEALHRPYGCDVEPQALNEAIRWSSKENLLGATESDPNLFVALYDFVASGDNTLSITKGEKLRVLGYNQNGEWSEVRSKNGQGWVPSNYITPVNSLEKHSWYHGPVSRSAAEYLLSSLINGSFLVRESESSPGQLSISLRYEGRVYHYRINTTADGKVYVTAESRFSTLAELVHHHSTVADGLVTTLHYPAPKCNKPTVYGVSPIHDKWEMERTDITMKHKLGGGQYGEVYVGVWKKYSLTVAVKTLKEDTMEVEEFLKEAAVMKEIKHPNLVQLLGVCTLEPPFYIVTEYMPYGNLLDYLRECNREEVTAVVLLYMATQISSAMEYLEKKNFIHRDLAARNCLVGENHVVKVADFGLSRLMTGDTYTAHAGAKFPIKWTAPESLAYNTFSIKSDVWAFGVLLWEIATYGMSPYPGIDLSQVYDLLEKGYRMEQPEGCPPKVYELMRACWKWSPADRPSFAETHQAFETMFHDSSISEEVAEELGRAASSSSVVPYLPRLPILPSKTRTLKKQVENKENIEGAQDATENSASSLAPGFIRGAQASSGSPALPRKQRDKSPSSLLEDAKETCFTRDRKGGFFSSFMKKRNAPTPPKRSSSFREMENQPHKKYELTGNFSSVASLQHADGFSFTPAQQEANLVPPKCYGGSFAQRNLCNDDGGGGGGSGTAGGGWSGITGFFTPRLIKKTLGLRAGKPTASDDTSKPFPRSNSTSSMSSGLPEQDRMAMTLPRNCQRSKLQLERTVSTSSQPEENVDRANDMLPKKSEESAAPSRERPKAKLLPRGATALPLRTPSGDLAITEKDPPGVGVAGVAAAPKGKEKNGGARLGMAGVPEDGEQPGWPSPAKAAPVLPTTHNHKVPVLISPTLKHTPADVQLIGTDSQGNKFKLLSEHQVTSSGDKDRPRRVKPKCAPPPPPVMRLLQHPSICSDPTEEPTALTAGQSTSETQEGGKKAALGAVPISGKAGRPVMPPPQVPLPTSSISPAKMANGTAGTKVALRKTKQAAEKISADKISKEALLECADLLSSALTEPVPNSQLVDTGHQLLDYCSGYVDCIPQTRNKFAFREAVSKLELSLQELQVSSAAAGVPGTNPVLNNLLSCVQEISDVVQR

Sequence of EGFR (P00533 25-1210): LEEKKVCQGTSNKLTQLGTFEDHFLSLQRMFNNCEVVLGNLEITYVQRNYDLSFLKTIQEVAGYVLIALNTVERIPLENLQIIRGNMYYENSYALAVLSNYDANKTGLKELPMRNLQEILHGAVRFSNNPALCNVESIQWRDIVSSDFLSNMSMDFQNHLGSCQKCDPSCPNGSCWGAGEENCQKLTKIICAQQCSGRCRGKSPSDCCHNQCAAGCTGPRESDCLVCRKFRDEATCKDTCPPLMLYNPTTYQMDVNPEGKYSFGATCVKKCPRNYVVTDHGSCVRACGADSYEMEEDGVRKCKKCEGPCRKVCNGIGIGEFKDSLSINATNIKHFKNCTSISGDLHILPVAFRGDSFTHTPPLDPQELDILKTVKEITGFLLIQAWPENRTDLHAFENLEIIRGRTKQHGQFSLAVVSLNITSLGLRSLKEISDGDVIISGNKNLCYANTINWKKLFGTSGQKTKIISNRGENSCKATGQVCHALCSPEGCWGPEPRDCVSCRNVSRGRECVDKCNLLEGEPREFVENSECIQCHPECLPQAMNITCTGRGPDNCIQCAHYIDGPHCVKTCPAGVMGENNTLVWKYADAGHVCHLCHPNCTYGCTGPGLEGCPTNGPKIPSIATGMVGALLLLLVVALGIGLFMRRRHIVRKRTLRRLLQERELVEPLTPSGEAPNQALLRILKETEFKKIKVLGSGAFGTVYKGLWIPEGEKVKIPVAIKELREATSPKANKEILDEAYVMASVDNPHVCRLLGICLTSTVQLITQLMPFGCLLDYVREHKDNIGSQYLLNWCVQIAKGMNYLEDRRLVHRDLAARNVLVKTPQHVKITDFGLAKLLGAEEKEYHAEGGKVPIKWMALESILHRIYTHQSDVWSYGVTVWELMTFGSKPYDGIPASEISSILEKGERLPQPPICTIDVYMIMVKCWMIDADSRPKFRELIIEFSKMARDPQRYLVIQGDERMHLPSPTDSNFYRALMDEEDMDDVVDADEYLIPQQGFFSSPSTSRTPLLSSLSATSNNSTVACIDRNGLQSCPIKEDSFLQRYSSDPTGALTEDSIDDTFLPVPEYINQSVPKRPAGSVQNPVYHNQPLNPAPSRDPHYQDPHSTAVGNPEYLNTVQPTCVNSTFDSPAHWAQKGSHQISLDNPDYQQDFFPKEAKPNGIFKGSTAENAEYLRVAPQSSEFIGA

Question: With `Cc1ccc(NC(=O)c2ccc(CN3CCN(C)CC3)cc2)cc1Nc1nccc(-c2cccnc2)[n+]1[Pt-2]1([Cl])[NH2+]C2CCCCC2[NH2+]1` (stereo not shown) [1b, oxaliplatin-imatinib] as the compound, how does the Percent control (EGFR) read?
Answer: 89%

Question: What about the IC50 (K562; CML cell line, Bcr-Abl positive, Table 1, read-out: Anticancer activity (IC50) K562) of the same compound?
Answer: 2270 ± 330 nM

Question: And the IC50 (K562; Table 2, read-out: Anticancer activity (IC50) K562 Sensitive parental)?
Answer: 2270 ± 330 nM

Question: How did the Percent control [1] turn out when `C#Cc1cccc(Nc2c3cc(OCCOC)c(OCCOC)cc3nc[n+]2[Pt@SP2-2]([NH3+])([NH3+])[Cl])c1` [2a, cisplatin-erlotinib] was run?
Answer: 49%

Question: What about the Percent control [2] of the same compound?
Answer: 12%

Question: Which remaining activity at 10 µM [3] does the source give for `C#Cc1cccc(Nc2ncnc3cc(OCCOC)c(OCCOC)cc23)c1` [Erlotinib] here?
Answer: 0.7%

Question: And the remaining activity at 10 µM [4]?
Answer: 45.1%

Question: What about the remaining activity at 10 µM (ABL1-nonphosphorylated) of the same compound?
Answer: 3.2%

Question: And the remaining activity at 10 µM [5]?
Answer: 0.6%

Question: And the remaining activity at 10 µM (ABL1-phosphorylated)?
Answer: 0.8%

Question: Which results are given for `Cc1ccc(NC(=O)c2ccc(CN3CCN(C)CC3)cc2)cc1Nc1nccc(-c2cccnc2)n1` [Imatinib, reference compound]?
Answer: remaining activity at 10 µM (EGFR(L861Q)): 100%; remaining activity at 10 µM (EGFR(L858R)): 100%

Question: With `COc1cc2c(Nc3ccc(Br)cc3F)ncnc2cc1OCC1CCN(C)CC1` [Vandetanib, reference compound] as the compound, how does the remaining activity at 10 µM (ABL2) read?
Answer: 0.7%
